Test system: 313798-341-R-J2-PDC spheroids, viability
Test: Anticancer human tumor 313798-341-R-J2-PDC patient-derived cervical squamous cell carcinoma cell line growth inhibition [PI3K]
Settings: spheroids with HUVEC and MSC; for IC50: curve of first compound; for viability, T/C: stronger effect = lower value
Outline: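 Stroma-containing spheroids: tumor line, pooled-donor HUVEC, hMSC. Treatments: targeted agents with PI3K inhibitors. Dosing: clinically relevant, half-log spacing, 10 microM ceiling without known Cmax. Read-out: cell viability.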

[1] = second compound 0.0316 µM, first compound 0.0316 µM
[2] = second compound 0.0316 µM, first compound 0.1 µM
[3] = second compound 0.0316 µM, first compound 0.316 µM
[4] = second compound 0.0316 µM, first compound 1 µM
[5] = second compound 0.0316 µM, first compound 3.16 µM
[6] = second compound 0.0316 µM, first compound 10 µM
[7] = second compound 0.1 µM, first compound 0.0316 µM
[8] = second compound 0.1 µM, first compound 0.1 µM
[9] = second compound 0.1 µM, first compound 0.316 µM
[10] = second compound 0.1 µM, first compound 1 µM
[11] = second compound 0.1 µM, first compound 3.16 µM
[12] = second compound 0.1 µM, first compound 10 µM
[13] = second compound 0.316 µM, first compound 0.0316 µM
[14] = second compound 0.316 µM, first compound 0.1 µM
[15] = second compound 0.316 µM, first compound 0.316 µM
[16] = second compound 0.316 µM, first compound 1 µM
[17] = second compound 0.316 µM, first compound 3.16 µM
[18] = second compound 0.316 µM, first compound 10 µM
[19] = second compound 1 µM, first compound 0.0316 µM
[20] = second compound 1 µM, first compound 0.1 µM
[21] = second compound 1 µM, first compound 0.316 µM
[22] = second compound 1 µM, first compound 1 µM
[23] = second compound 1 µM, first compound 3.16 µM
[24] = second compound 1 µM, first compound 10 µM
[25] = second compound 3.16 µM, first compound 0.0316 µM
[26] = second compound 3.16 µM, first compound 0.1 µM
[27] = second compound 3.16 µM, first compound 0.316 µM
[28] = second compound 3.16 µM, first compound 1 µM
[29] = second compound 3.16 µM, first compound 3.16 µM
[30] = second compound 3.16 µM, first compound 10 µM
[31] = second compound 10 µM, first compound 0.0316 µM
[32] = second compound 10 µM, first compound 0.1 µM
[33] = second compound 10 µM, first compound 0.316 µM
[34] = second compound 10 µM, first compound 1 µM
[35] = second compound 10 µM, first compound 3.16 µM
[36] = second compound 10 µM, first compound 10 µM
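Also: spheroids exposed to compounds for seven days.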
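For viability, T/C in this document: 100% = DMSO vehicle control viability.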

C#Cc1c(F)ccc2cc(O)cc(-c3ncc4c(N5CC6CCC(C5)N6)nc(OCC56CCCN5CC(F)C6)nc4c3F)c12 (stereo not given) + Cc1nc(NC(=O)N2CCCC2C(N)=O)sc1-c1ccnc(C(C)(C)C(F)(F)F)c1
IC50 (second compound 0.0316 µM): > 10 µM | IC50 (second compound 0.1 µM): > 10 µM | IC50 (second compound 0.316 µM): > 10 µM | IC50 (second compound 1 µM): > 10 µM | IC50 (second compound 3.16 µM): 9.34 µM | IC50 (second compound 10 µM): < 0.0316 µM | viability, T/C [1]: 92.7% | viability, T/C [2]: 91.5% | viability, T/C [3]: 90.5% | viability, T/C [4]: 99.2% | viability, T/C [5]: 103% | viability, T/C [6]: 102% | viability, T/C [7]: 105% | viability, T/C [8]: 106% | viability, T/C [9]: 112% | viability, T/C [10]: 97% | viability, T/C [11]: 105% | viability, T/C [12]: 96.5% | viability, T/C [13]: 99.9% | viability, T/C [14]: 98.4% | viability, T/C [15]: 121% | viability, T/C [16]: 108% | viability, T/C [17]: 99.1% | viability, T/C [18]: 100% | viability, T/C [19]: 97.6% | viability, T/C [20]: 80.3% | viability, T/C [21]: 89.3% | viability, T/C [22]: 89.7% | viability, T/C [23]: 90.9% | viability, T/C [24]: 79% | viability, T/C [25]: 59.9% | viability, T/C [26]: 62.5% | viability, T/C [27]: 59.1% | viability, T/C [28]: 60.1% | viability, T/C [29]: 54.6% | viability, T/C [30]: 44.8% | viability, T/C [31]: 41.7% | viability, T/C [32]: 39.8% | viability, T/C [33]: 33.2% | viability, T/C [34]: 33.9% | viability, T/C [35]: 31.3% | viability, T/C [36]: 27.2%

C=CC(=O)N1CCN(c2nc(=O)n(-c3c(C)ccnc3C(C)C)c3nc(-c4c(O)cccc4F)c(F)cc23)C(C)C1 (stereo not given) + Cc1nc(NC(=O)N2CCCC2C(N)=O)sc1-c1ccnc(C(C)(C)C(F)(F)F)c1
IC50 (second compound 0.0316 µM): > 10 µM | IC50 (second compound 0.1 µM): > 10 µM | IC50 (second compound 0.316 µM): > 10 µM | IC50 (second compound 1 µM): > 10 µM | IC50 (second compound 3.16 µM): > 10 µM | IC50 (second compound 10 µM): < 0.0316 µM | viability, T/C [1]: 99.9% | viability, T/C [2]: 101% | viability, T/C [3]: 96.5% | viability, T/C [4]: 106% | viability, T/C [5]: 99.2% | viability, T/C [6]: 96% | viability, T/C [7]: 94.4% | viability, T/C [8]: 94% | viability, T/C [9]: 114% | viability, T/C [10]: 86.3% | viability, T/C [11]: 94.3% | viability, T/C [12]: 92.8% | viability, T/C [13]: 91.2% | viability, T/C [14]: 90.2% | viability, T/C [15]: 93.1% | viability, T/C [16]: 98.8% | viability, T/C [17]: 101% | viability, T/C [18]: 101% | viability, T/C [19]: 89% | viability, T/C [20]: 89.4% | viability, T/C [21]: 88.2% | viability, T/C [22]: 97.3% | viability, T/C [23]: 96.7% | viability, T/C [24]: 89.5% | viability, T/C [25]: 67.5% | viability, T/C [26]: 56.5% | viability, T/C [27]: 51.9% | viability, T/C [28]: 67.5% | viability, T/C [29]: 67.9% | viability, T/C [30]: 58.5% | viability, T/C [31]: 35.2% | viability, T/C [32]: 32.4% | viability, T/C [33]: 35.7% | viability, T/C [34]: 32.9% | viability, T/C [35]: 37.9% | viability, T/C [36]: 34.2%

CC(Cn1ccc(-c2ccc(C#N)c(Cl)c2)n1)NC(=O)c1cc(C(C)O)[nH]n1 (stereo not given) + Cc1nc(NC(=O)N2CCCC2C(N)=O)sc1-c1ccnc(C(C)(C)C(F)(F)F)c1
IC50 (second compound 0.0316 µM): > 10 µM | IC50 (second compound 0.1 µM): > 10 µM | IC50 (second compound 0.316 µM): > 10 µM | IC50 (second compound 1 µM): > 10 µM | IC50 (second compound 3.16 µM): > 10 µM | IC50 (second compound 10 µM): < 0.0316 µM | viability, T/C [1]: 103% | viability, T/C [2]: 93.9% | viability, T/C [3]: 97.6% | viability, T/C [4]: 99.9% | viability, T/C [5]: 111% | viability, T/C [6]: 92.1% | viability, T/C [7]: 114% | viability, T/C [8]: 109% | viability, T/C [9]: 103% | viability, T/C [10]: 113% | viability, T/C [11]: 114% | viability, T/C [12]: 103% | viability, T/C [13]: 114% | viability, T/C [14]: 104% | viability, T/C [15]: 118% | viability, T/C [16]: 114% | viability, T/C [17]: 108% | viability, T/C [18]: 98.4% | viability, T/C [19]: 96.7% | viability, T/C [20]: 93.6% | viability, T/C [21]: 94.8% | viability, T/C [22]: 85.2% | viability, T/C [23]: 97.6% | viability, T/C [24]: 84.1% | viability, T/C [25]: 67.5% | viability, T/C [26]: 57.3% | viability, T/C [27]: 66.1% | viability, T/C [28]: 61.7% | viability, T/C [29]: 59.1% | viability, T/C [30]: 52.5% | viability, T/C [31]: 37.2% | viability, T/C [32]: 33.2% | viability, T/C [33]: 39.3% | viability, T/C [34]: 36.3% | viability, T/C [35]: 37.4% | viability, T/C [36]: 30.9%

Cn1ncc(Cl)c1-c1cc(C(=O)NC(CN)Cc2cccc(F)c2)sc1Cl (stereo not given) + Cc1nc(NC(=O)N2CCCC2C(N)=O)sc1-c1ccnc(C(C)(C)C(F)(F)F)c1
IC50 (second compound 0.0316 µM): 0.927 µM | IC50 (second compound 0.1 µM): 0.831 µM | IC50 (second compound 0.316 µM): 0.868 µM | IC50 (second compound 1 µM): 0.572 µM | IC50 (second compound 3.16 µM): 0.238 µM | IC50 (second compound 10 µM): < 0.0316 µM | viability, T/C [1]: 109% | viability, T/C [2]: 93.2% | viability, T/C [3]: 70.3% | viability, T/C [4]: 49.7% | viability, T/C [5]: 34.5% | viability, T/C [6]: 33.3% | viability, T/C [7]: 108% | viability, T/C [8]: 89% | viability, T/C [9]: 72.1% | viability, T/C [10]: 44.5% | viability, T/C [11]: 33.6% | viability, T/C [12]: 34.8% | viability, T/C [13]: 102% | viability, T/C [14]: 99.7% | viability, T/C [15]: 72.2% | viability, T/C [16]: 48.5% | viability, T/C [17]: 34.5% | viability, T/C [18]: 33.1% | viability, T/C [19]: 76.5% | viability, T/C [20]: 73.9% | viability, T/C [21]: 56.5% | viability, T/C [22]: 43.9% | viability, T/C [23]: 34.3% | viability, T/C [24]: 33.7% | viability, T/C [25]: 59.5% | viability, T/C [26]: 57.5% | viability, T/C [27]: 46% | viability, T/C [28]: 40.7% | viability, T/C [29]: 30.4% | viability, T/C [30]: 28.4% | viability, T/C [31]: 38.2% | viability, T/C [32]: 32.6% | viability, T/C [33]: 31.9% | viability, T/C [34]: 26.4% | viability, T/C [35]: 27.7% | viability, T/C [36]: 17.4%

Cn1nccc1Nc1nccc(-c2ccn(C(CO)c3ccc(Cl)c(F)c3)c(=O)c2)n1 (stereo not given) + Cc1nc(NC(=O)N2CCCC2C(N)=O)sc1-c1ccnc(C(C)(C)C(F)(F)F)c1
IC50 (second compound 0.0316 µM): > 10 µM | IC50 (second compound 0.1 µM): > 10 µM | IC50 (second compound 0.316 µM): > 10 µM | IC50 (second compound 1 µM): > 10 µM | IC50 (second compound 3.16 µM): 5.98 µM | IC50 (second compound 10 µM): < 0.0316 µM | viability, T/C [1]: 102% | viability, T/C [2]: 90% | viability, T/C [3]: 92.9% | viability, T/C [4]: 102% | viability, T/C [5]: 102% | viability, T/C [6]: 109% | viability, T/C [7]: 95.7% | viability, T/C [8]: 103% | viability, T/C [9]: 99% | viability, T/C [10]: 103% | viability, T/C [11]: 113% | viability, T/C [12]: 106% | viability, T/C [13]: 97.4% | viability, T/C [14]: 102% | viability, T/C [15]: 103% | viability, T/C [16]: 98.8% | viability, T/C [17]: 109% | viability, T/C [18]: 103% | viability, T/C [19]: 88.8% | viability, T/C [20]: 81.3% | viability, T/C [21]: 91.9% | viability, T/C [22]: 90.4% | viability, T/C [23]: 89.4% | viability, T/C [24]: 71.3% | viability, T/C [25]: 57.9% | viability, T/C [26]: 60.4% | viability, T/C [27]: 55.7% | viability, T/C [28]: 56.5% | viability, T/C [29]: 52.9% | viability, T/C [30]: 45.4% | viability, T/C [31]: 35.4% | viability, T/C [32]: 22.1% | viability, T/C [33]: 31.6% | viability, T/C [34]: 26.8% | viability, T/C [35]: 29.2% | viability, T/C [36]: 24.1%

Reference: PubChem BioAssay AID1963982 (Molecular Pharmacology Branch, DTP, NCI, 2024)
